This is an account of results in patent US20200165194A1, “ADDITIVE COMPOSITION FOR CULTURE MEDIUM, ADDITIVE COMPOUND FOR CULTURE MEDIUM, AND METHOD FOR CULTURE OF CELLS OR TISSUE USING SAME” (NISSAN CHEMICAL CORPORATION, priority 2017, published 2020).

Like-named read-outs stand apart in the source and are kept apart here. Bounds are passed on as bounds.

Format in all cases: cell-based
The test system of data set [1] is Human umbilical vein endothelial cells. As to the kind of experiment: Vascular endothelial cell, 3D culture, ATP assay (Experimental Example 14). The note with it: for proliferation activity (in words): human umbilical vein endothelial cells under three-dimensional conditions; for viability at 5 µM / viability at 10 µM: Homo sapiens, HUVEC, 96 h, 4 days, no-addition = 100%, read-out: relative value of RLU (number of viable cells). The procedure: Human umbilical vein endothelial cells (manufactured by PromoCell) were precultured in Endothelial Cell proliferation Medium (manufactured by PromoCell) medium (single layer culture). The above-mentioned cells in the logarithmic growth phase were washed with PBS, DetachKit (manufactured by PromoCell) was added, and adherent cells were detached by incubating at 37° C. for 3 min. The medium was added and the mixture was centrifuged and resuspended in the same medium.
(§1) The aforementioned cells were suspended in respective deacylated gellan gum-containing or not containing media (deacylated gellan gum concentration was 0.015 w/v %), and seeded in a 96 well low attachment U-bottom plate (manufactured by Corning, #4520, deacylated gellan gum-free medium), or a low attachment flat bottom plate (manufactured by Corning, #3474, deacylated gellan gum-containing medium) at a cell concentration of 700-2000 cells/90 μL/well (all 3D culture). […] The amount of each compound solution to be added was 10 μL/well. As a control, a DMSO solution dissolved in a medium was added (DMSO final concentration 0.1%).

The test system of data set [2] is Bone marrow-derived human mesenchymal stem cells (BM-hMSC). Briefly: Human mesenchymal stem cell-2: 3D, EZSPHERE and 2D culture, ATP assay (Experimental Example 10). The note with it: for viability at 1 µM / viability at 5 µM / viability at 10 µM / viability at 20 µM: Homo sapiens, Mesenchymal stem cells, 96 h, BM-hMSC, 4 days, non-addition = 100%, read-out: relative value of RLU (number of viable cells). Here is the method: Bone marrow-derived human mesenchymal stem cells (BM-hMSC, manufactured by PromoCell) were precultured by a single layer culture method (2D) using a mesenchymal stem cell proliferation medium (manufactured by PromoCell). In three-dimensional culture method (3D), hMSC was suspended in a medium composition added with deacylated gellan gum, and seeded in a […] flat bottom Ultr-low Attachment surface plate (manufactured by Corning Incorporated, #3474) at 6000 cells/90 μL/well. In the three-dimensional culture method using EZSPHERE (EZSPHERE), hMSC was suspended in a deacylated gellan gum-free medium composition, and seeded in a 96-well EZSPHERE plate (manufactured by AGC TECHNO GLASS CO., LTD., #4860-900) at 2000 cells/90 μL/well. In 2D, hMSC was suspended in a deacylated gellan gum-free medium composition, and seeded in a 96-well flat bottom plate (manufactured by Corning Incorporated, #3585) at 2000 cells/90 μL/well. […] As a control, DMSO was added at a final concentration of 0.1%.

The test system of data set [3] is human ovarian cancer cell line SKOV3. Briefly: Various human cancer cells-2, 3D culture, ATP assay (Experimental Example 6). As to conditions: 4 days; for viability at 5 µM / viability at 10 µM: Homo sapiens, SK-OV-3, 96 h, read-out: number of viable cells (RLU), relative value to control (100%). Here is the method:
(§2) Various human-derived cancer cells were precultured (single layer culture) in respective media shown below. […] The above-mentioned cells in the logarithmic growth phase were washed with PBS, a 0.25 w/v % trypsin-1 mmol/L EDTA (ethylenediaminetetraacetic acid) solution (manufactured by Wako Pure Chemical Industries, Ltd.) was added, and adherent cells were detached by incubating at 37° C. for 1-5 min. Each medium was added and the mixture was centrifuged. After resuspension in the same medium, each cell was recovered.
as §1, with “aforementioned various” for “aforementioned”, “700-12000” for “700-2000”, “0.1%). […] When compared with the compound no-addition (control), one showing a value of not more than 119% as -, one showing a value of not less than 120% as ◯, and one showing a value of not less than 150% as ⊚ are shown in the eleventh table and the twelfth table. Unperformed test is left blank.” for “0.1%).”

In data set [4] the test system is human alveolar basal epithelial adenocarcinoma-derived cell line A549. The description is as above. The note with it: 4 days; for viability at 5 µM / viability at 10 µM: Homo sapiens, A549, 96 h, read-out: number of viable cells (RLU), relative value to control (100%). Here is the method:
as §2
as §1, with “aforementioned various” for “aforementioned”, “700-12000” for “700-2000”, “0.1%). […] When compared with the compound no-addition (control), one showing a value of not more than 119% as -, one showing a value of not less than 120% as ◯, and one showing a value of not less than 150% as ⊚ are shown in the eleventh table and the twelfth table. Unperformed test is left blank.” for “0.1%).”

Data set [5] has as its system hiPS cell line 253G1. Briefly: Human pluripotent stem cell (hiPS cell), EZSPHERE plate, ATP assay (Experimental Example 13). The note with it: for relative value (%): hiPS 253G1, EZSPHERE plate, 5 μM, 3 days, RLU of DMSO addition = 100%; for proliferation activity (in words): human pluripotent stem cells under three-dimensional conditions. Here is the method: hiPS cell line 253G1 (purchased from RIKEN) was cultured on a dish coated with vitronectin VTN-N (manufactured by Thermo Fisher Scientific) using mTeSR1 (registered trade mark) medium (manufactured by STEMCELL Technologies). The above-mentioned cells in the proliferation phase were washed with PBS (manufactured by Fujifilm Corporation Wako Pure Chemical Industries, Ltd.), TrypLE Select (registered trade mark) (manufactured by Thermo Fisher Scientific) was added and the mixture was incubated at 37° C. for 3 min to remove the detaching solution. The medium was added and the cells were detached by pipetting. Thereafter, the supernatant was removed by centrifugation.
The aforementioned cells were suspended in a medium containing 10 μM Y-27632 (manufactured by Fujifilm Corporation Wako Pure Chemical Industries, Ltd.) and seeded in a 96-well EZSPHERE plate (manufactured by AGC TECHNO GLASS CO., LTD., #4860-900) at a cell concentration of 10000 cells/200 μL/well. […] The amount of each compound solution to be added was 2 μL/well. As a control, a DMSO solution dissolved in a medium was added (DMSO final concentration 0.05%). The medium was exchanged by half the volume every day, and each compound solution was also added to make the compound concentration constant.

The mark [6] stands for this setting: three-dimensional cell culture conditions.
Setting [7] is: low attachment U-bottom plate, 5 μM.
[8] abbreviates: low attachment U-bottom plate, 10 μM.
[9] abbreviates: low attachment flat bottom plate (gellan gum medium), 5 μM.
The mark [10] stands for this setting: low attachment flat bottom plate (gellan gum medium), 10 μM.
Where [11] appears, read: low attachment flat bottom plate (deacylated gellan gum-containing medium).

For `CC/C(=N\NC(=O)C(C)Nc1ccccc1)c1ccc(O)c(C)c1O` (stereo not drawn) [k-1:B-1], the “proliferation activity (in words)” value is “promoted proliferation activity in human umbilical vein endothelial cells” in data set [1], “promoted proliferation activity of BM-hMSC” in data set [2] (setting [6]), “promoted proliferation activity of hMSC” in data set [2] (two-dimensional cell culture conditions) and “promoted proliferation activity in human pluripotent stem cells” in data set [5]. The viability at 1 µM in data set [2] (2D) is 109%; in data set [2] (3D (deacylated gellan gum)), 139%; in data set [2] (EZSPHERE plate), 154%. The viability at 5 µM in data set [2] (2D) was determined as 125%; in data set [2] (3D (deacylated gellan gum)) it was 298%; in data set [2] (EZSPHERE plate) it was 247%. Further, the values for the viability at 10 µM in data set [2] (2D), in data set [2] (3D (deacylated gellan gum)) and in data set [2] (EZSPHERE plate) were 158%, 418% and 297%, respectively. In addition, the viability at 20 µM in data set [2] (2D) was found to be 164%; in data set [2] (3D (deacylated gellan gum)) it was 420%; in data set [2] (EZSPHERE plate) it was 278%. Further, the “number of viable cells (RLU), relative value to control (100%)” value in data set [3] (setting [7]), in data set [3] (setting [8]), in data set [3] (setting [9]), in data set [3] (setting [10]), in data set [4] (setting [7]) and in data set [4] (setting [8]) was “⊙” in each case. Moreover, the “number of viable cells (RLU), relative value to control (100%)” value in data set [4] (setting [9]) and in data set [4] (setting [10]) was “⊙” in each case. Besides, the “relative value (%)” value in data set [5] worked out at 193%.
As for `CCC(=NNC(=O)C(CC)Nc1ccccc1)c1ccc(O)c(C)c1O` (stereo not drawn) [k-1:H-7], the entries for the “proliferation activity (in words)” value in data set [1] and in data set [5] were “promoted proliferation activity in human umbilical vein endothelial cells” and “promoted proliferation activity in human pluripotent stem cells”, respectively. In data set [5], the “relative value (%)” value is 194%.
Regarding `CC/C(=N\NC(=O)NCc1ccccc1)c1ccc(O)c(C)c1O` [k-1:I-1], the viability at 5 µM is 327% in data set [1] (low attachment U-bottom plate); 209% in data set [1] (setting [11]); 98% in data set [2] (2D); 123% in data set [2] (3D (deacylated gellan gum)); 120% in data set [2] (EZSPHERE plate); 120 to 150% in data set [3] (setting [7]). Besides, the viability at 5 µM in data set [3] (setting [9]), in data set [4] (setting [7]) and in data set [4] (setting [9]) was less than 119% each time. Moreover, the viability at 10 µM in data set [1] (low attachment U-bottom plate) is 304%; in data set [1] (setting [11]), 268%; in data set [2] (2D) it was 104%; in data set [2] (3D (deacylated gellan gum)), 150%; in data set [2] (EZSPHERE plate), 144%; in data set [3] (setting [8]), 120 to 150%. In addition, the viability at 10 µM in data set [3] (setting [10]) was 120 to 150%; in data set [4] (setting [8]), less than 119%; in data set [4] (setting [10]) it was 120 to 150%. Further, the “proliferation activity (in words)” value in data set [1] is “promoted proliferation activity in human umbilical vein endothelial cells”; in data set [2] (setting [6]), “promoted proliferation activity of BM-hMSC”. For the same molecule, the viability at 1 µM in data set [2] (2D) stood at 107%; in data set [2] (3D (deacylated gellan gum)) it was 100%; in data set [2] (EZSPHERE plate), 101%. Besides, the viability at 20 µM in data set [2] (2D) amounted to 107%; in data set [2] (3D (deacylated gellan gum)), 177%; in data set [2] (EZSPHERE plate) it was 163%.
